From patent US10501460B2, “Heterocyclic compounds and uses thereof” (Plexxikon Inc., priority 2013, dated 2019)

Tests used:
MV-4-11 = assay: Oncology cell growth assay MV-4-11 (CellTiter Glo, 72 hours); type: cell-based; settings: Homo sapiens, MV4-11, 72 h; MV-4-11 cell growth inhibitory activity, 3d
Description: (§1) Published bromodomain inhibitors JQ1 and iBET 151 have shown activity in variety of cancer cells such leukemia and lymphoma, multiple myeloma cells, NUT midline carcinoma and glioblastoma cells (Dawson M A et al. 2011; Delmore J E 2011; Chen Z et al. 2013; Filippakopoulos P et al. 2010; Mertz J A et al. 2011; Ott C J et al. 2012). In this study, we test compounds in different cancer cell lines. MV-4-11 and MOLM-13 are AML cell lines harboring a MLL-AF4 and MLL-AF9 translocation, respectively. MM.1S is a multiple myeloma cell line. SK-N-AS, IMR-32 and SK-N-BE(2) are neuroblastoma cell lines. IMR-32 and SK-N-BE(2) cell lines harbor MYCN amplifications. MV-4-11, MM.1S, IMR-32, SK-N-AS and SK-N-BE(2) were obtained from ATCC (IL, USA) and MOLM-13 were purchased from DSMZ (Braunschweig, German). Cells are cultured as recommended by their sources. For growth inhibition studies 3000 cells are seeded in wells of a 96-well plate in 75 μL of culture media. After several hours, growth media containing compounds of formula (I) are added to the wells. Compound at a maximal concentration of 5 mM was serially diluted 1:3 for a total of 8 point titration with DMSO as a control. A 1 μL aliquot of each dilution point is added to 249 μL growth media and 75 μL is added to each well containing cells, providing 10 μM compound at the maximum concentration point. The final concentration of DMSO in all wells is 0.2%. Cells are incubated for 72 hours, and 25 μL of CellTiter Glo Reagent (Promega Ga., USA) is added to each well. Plates are shaken for approximately 10 minutes and chemiluminescent signal is read on Tecan microplate reader. The measured luminescence correlates directly with cell number.
(§2) All data is normalized to the mean of eight DMSO high control wells on each plate. A four parameter curve fit of the following formula was then applied: Y=a+(b−a)/(1+(x/c)^d) Where ‘a’ is the minimum, ‘b’ is the maximum, ‘c’ is the pIC50 and ‘d’ is the Hill slope. […] Myc Reporter Assay
The following table provides data indicating the BRD4 biochemical inhibitory activity and MV-4-11 cell growth inhibitory activity for exemplary compounds as described herein.

bromodomain = assay: Bromodomain cell assays of Example 40 (at least one of them); type: cell-based; settings: in at least one of the bromodomain cell assays described in Example 40
Description: as §1, §2
In MV-4-11 cells, BRD2, BRD3 and BRD4 bind to the promoter region of MYC and regulate its transcription (Dawson M A et al. 2011). The literature bromodomain inhibitor iBET 151 could disrupt BRD4 recruitment to the MYC promoter and subsequently downregulate c-myc transcription (Dawson M A et al. 2011). Myc protein is a transcription factor that heterodimerizes with an obligatory partner Max and regulates the transcription of genes important for cell proliferation, differentiation, and apoptosis. This Myc reporter assay is used to monitor the inhibitory effect of compound of formula (I) on Myc dependent gene expression. Effective compounds could have potential therapeutic effects in Myc-driven tumors.
The MV-4-11 Myc reporter cell line is established by infecting MV-4-11 with VSV-g pseudotyped lentivirus expressing the firefly luciferase gene under the control of a minimal (m) CMV promoter and tandem repeats of the E-box transcriptional response element (TRE) (Qiagen IL, USA) and selecting cells in […] Puromycin.
The MV-4-11 Myc reporter cell line is maintained in Iscove's Modified Dulbecco's Medium containing 10% FBS, 1% PenStep and 2.5 μg/ml Puromycin. Cells are incubated at 37° C. in a humidified atmosphere with 5% CO2. 25,000 cells are seeded in 96-well plate in 50 μL of culture media. After several hours, growth media containing 2× compounds are added to the wells. Compound at a maximal concentration of 5 mM is serially diluted 1:3 for a total of 8 point titration. A 1 μl aliquot of each dilution point is added to 249 μl growth media and 50 μl is added to each well containing cells, providing 10 μM compound at the maximum concentration point. DMSO treated cells serve as a high control and 10 μM JQ1 treated cells serve as a low control. Cells are incubated for a further 24 hours and 25 μL of CellTiter-Fluo Reagent (Promega Ga., USA) is added to each well. Plates are shaken for approximately 2 minutes and incubated at 37° C. for 0.5 hour. […]

Structure (SMILES) | IC50 (MV-4-11) [µM] | IC50 (bromodomain) [µM]
Cc1noc(C)c1-c1cnc2[nH]cc(Cc3cccnc3)c2c1 [P-0003, 3,5-dimethyl-4-[3-(3-pyridylmethyl)-1H-pyrrolo[2,3-b]pyridin-5-yl]isoxazole] | ≤ 1 | < 10
Cc1noc(C)c1-c1cnc2[nH]c(C)c(Cc3cccnc3)c2c1 [P-0005, 3,5-dimethyl-4-[2-methyl-3-(3-pyridylmethyl)-1H-pyrrolo[2,3-b]pyridin-5-yl]isoxazole] | ≤ 1 | < 10
Cc1noc(C)c1-c1cnc2[nH]c(-c3ccc(F)cc3)c(Cc3cccnc3)c2c1 [P-0007, 4-[2-(4-fluorophenyl)-3-(3-pyridylmethyl)-1H-pyrrolo[2,3-b]pyridin-5-yl]-3,5-dimethyl-isoxazole] | ≤ 1 | < 10
Cc1noc(C)c1-c1cnc2[nH]c(C)c(C(O)c3cccnc3)c2c1 (centres unmarked) [P-0009, [5-(3,5-dimethylisoxazol-4-yl)-2-methyl-1H-pyrrolo[2,3-b]pyridin-3-yl]-(3-pyridyl)methanol] | ≤ 1 | < 10
COc1ncc(F)cc1C(OC)c1c[nH]c2ncc(-c3c(C)noc3C)cc12 (centres unmarked) [P-0011, 4-[3-[(5-fluoro-2-methoxy-3-pyridyl)-methoxy-methyl]-1H-pyrrolo[2,3-b]pyridin-5-yl]-3,5-dimethyl-isoxazole] | ≤ 1 | < 10
Cc1noc(C)c1-c1cnc2[nH]cc(C(O)c3ccc(OCC(F)(F)F)nc3)c2c1 (centres unmarked) [P-0012, [5-(3,5-dimethylisoxazol-4-yl)-1H-pyrrolo[2,3-b]pyridin-3-yl]-[6-(2,2,2-trifluoroethoxy)-3-pyridyl]methanol] | 1 to 10 | < 10
COC(c1ccc(C(F)(F)F)nc1)c1c[nH]c2ncc(-c3c(C)noc3C)cc12 (centres unmarked) [P-0013, 4-[3-[methoxy-[6-(trifluoromethyl)-3-pyridyl]methyl]-1H-pyrrolo[2,3-b]pyridin-5-yl]-3,5-dimethyl-isoxazole] | ≤ 1 | < 10
COC(c1c(F)cccc1Cl)c1c[nH]c2ncc(-c3c(C)noc3C)cc12 (centres unmarked) [P-0014, 4-[3-[(2-chloro-6-fluoro-phenyl)-methoxy-methyl]-1H-pyrrolo[2.3-b]pyridin-5-yl]-3,5-dimethyl-isoxazole] | ≤ 1 | < 10
Cc1noc(C)c1-c1cnc2[nH]cc(C(O)c3ccccc3Cl)c2c1 (centres unmarked) [P-0019, (2-chlorophenyl)-[5-(3,5-dimethylisoxazol-4-yl)-1H-pyrrolo[2,3-b]pyridin-3-yl]methanol] | ≤ 1 | < 10
COC(c1ccccc1Cl)c1c[nH]c2ncc(-c3c(C)noc3C)cc12 (centres unmarked) [P-0020, 4-[3-[(2-chlorophenyl)-methoxy-methyl]-1H-pyrrolo[2,3-b]pyridin-5-yl]-3,5-dimethyl-isoxazole] | ≤ 1 | < 10
Cc1noc(C)c1-c1cnc2[nH]cc(C(O)c3c(F)cccc3Cl)c2c1 (centres unmarked) [P-0021, (2-chloro-6-fluoro-phenyl)-[5-(3,5-dimethylisoxazol-4-yl)-1H-pyrrolo[2,3-b]pyridin-3-yl] methanol] | ≤ 1 | < 10
COc1ncc(F)cc1C(O)c1c[nH]c2ncc(-c3c(C)noc3C)cc12 (centres unmarked) [P-0022, [5-(3,5-dimethylisoxazol-4-yl)-1H-pyrrolo[2,3-b]pyridin-3-yl]-(5-fluoro-2-methoxy-3-pyridyl)methanol] | ≤ 1 | < 10
Cc1noc(C)c1-c1cnc2[nH]cc(C3(O)CCC(F)(F)CC3)c2c1 [P-0024, 1-[5-(3,5-dimethylisoxazol-4-yl)-1H-pyrrolo[2,3-b]pyridin-3-yl]-4,4-difluoro-cyclohexanol] | 1 to 10 | < 10
COc1ncc(C(O)c2c[nH]c3ncc(-c4c(C)noc4C)cc23)cc1F (centres unmarked) [P-0025, [5-(3,5-dimethylisoxazol-4-yl)-1H-pyrrolo[2,3-b]pyridin-3-yl]-(5-fluoro-6-methoxy-3-pyridyl)methanol] | 1 to 10 | < 10
Cc1noc(C)c1-c1cnc2[nH]cc(Cc3ccccc3Cl)c2c1 [P-0026, 4-[3-[(2-chlorophenyl)methyl]-1H-pyrrolo[2,3-b]pyridin-5-yl]-3,5-dimethyl-isoxazole] | 1 to 10 | < 10
Cc1noc(C)c1-c1cnc2[nH]cc(Cc3c(F)cccc3Cl)c2c1 [P-0027, 4-[3-[(2-chloro-6-fluoro-phenyl)methyl]-1H-pyrrolo [2,3-b]pyridin-5-yl]-3,5-dimethyl-isoxazole] | 1 to 10 | < 10
COc1ncc(F)cc1Cc1c[nH]c2ncc(-c3c(C)noc3C)cc12 [P-0028, 4-[3-[(5-fluoro-2-methoxy-3-pyridyl)methyl]-1H-pyrrolo[2,3-b]pyridin-5-yl]-3,5-dimethyl-isoxazole] | ≤ 1 | < 10
Cc1noc(C)c1-c1cnc2[nH]cc(C3=CCC(F)(F)CC3)c2c1 [P-0029, 4-[3-(4,4-difluorocyclohexen-1-yl)-1H-pyrrolo[2,3-b]pyridin-5-yl]-3,5-dimethyl-isoxazole] | 1 to 10 | < 10
Cc1noc(C)c1-c1cnc2[nH]cc(C(O)C3CCC(F)(F)CC3)c2c1 (centres unmarked) [P-0030, (4,4-difluorocyclohexyl)-[5-(3,5-dimethylisoxazol-4-yl)-1H-pyrrolo[2,3-b]pyridin-3-yl] methanol] | ≤ 1 | < 10
Cc1noc(C)c1-c1cnc2[nH]cc(C(=O)C3CCC(F)(F)CC3)c2c1 [P-0031, (4,4-difluorocyclohexyl)-[5-(3,5-dimethylisoxazol-4-yl)-1H-pyrrolo[2,3-b]pyridin-3-yl]methanone] | 1 to 10 | < 10
Cc1noc(C)c1-c1cnc2[nH]cc(CC3CCC(F)(F)CC3)c2c1 [P-0034, 4-[3-[(4,4-difluorocyclohexyl)methyl]-1H-pyrrolo[2,3-b]pyridin-5-yl]-3,5-dimethyl-isoxazole] | ≤ 1 | < 10
CCCCS(=O)(=O)n1ccc2ncc(-c3c(C)noc3C)cc21 [P-0036, 4-(1-butylsulfonylpyrrolo [3,2-b]pyridin-6-yl)-3,5-dimethyl-isoxazole] | 1 to 10 | < 10
Cc1noc(C)c1-c1cnc2ccn(S(=O)(=O)C3CCCC3)c2c1 [P-0037, 4-(1-cyclopentylsulfonylpyrrolo [3,2-b]pyridin-6-yl)-3,5-dimethyl-isoxazole] | ≤ 1 | < 10
Cc1noc(C)c1-c1cnc2ccn(Cc3ccccc3)c2c1 [P-0162, 4-(1-benzylpyrrolo[3,2-b]pyridin-6-yl)-3,5-dimethyl-isoxazole] | ≤ 1 | 
Cc1noc(C)c1-c1cnc2[nH]cc(P(=O)(c3ccccc3)c3ccccc3)c2c1 [P-0166, 4-(3-diphenylphosphoryl-1H-pyrrolo[2,3-b]pyridin-5-yl)-3,5-dimethyl-isoxazole] | ≤ 1 | 
Cc1noc(C)c1-c1cnc2c(-c3cnn(C(F)F)c3)cn(C(C)c3ccccc3)c2c1 (centres unmarked) [P-0177, 4-[3-[1-(difluoromethyl)pyrazol-4-yl]-1-(1-phenylethyl)pyrrolo[3,2-b]pyridin-6-yl]-3,5-dimethyl-isoxazole] | ≤ 1 | 
Cc1noc(C)c1-c1cnc2c(c1)c(Sc1ccccc1)cn2-c1cnn(C)c1 [P-0184, 3,5-dimethyl-4-[1-(1-methylpyrazol-4-yl)-3-phenylsulfanyl-pyrrolo[2,3-b]pyridin-5-yl]isoxazole] | ≤ 1 | 
